Test system: 354836-022-R-J1-PDC multicell spheroid viability
Assay: Anticancer human tumor 354836-022-R-J1-PDC patient-derived head and neck squamous cell carcinoma cell line growth inhibition [PI3K]
Conditions: for IC50: curve of first compound; for viability, T/C: stronger effect = lower value; active = viability on the fitted dose curve at most 10% of control; inactive = the rest
How it was run: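 High-throughput combination screen: PI3K inhibitors crossed with targeted small molecules on complex spheroids of tumor cells, HUVEC and MSCs at 37 degrees C, 5% CO2. Top concentration was at or near clinical Cmax (otherwise 10 microM), with half-log decrements.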

[1] = second compound 0.0316 µM, first compound 0.0316 µM
[2] = second compound 0.0316 µM, first compound 0.1 µM
[3] = second compound 0.0316 µM, first compound 0.316 µM
[4] = second compound 0.0316 µM, first compound 1 µM
[5] = second compound 0.0316 µM, first compound 3.16 µM
[6] = second compound 0.0316 µM, first compound 10 µM
[7] = second compound 0.1 µM, first compound 0.0316 µM
[8] = second compound 0.1 µM, first compound 0.1 µM
[9] = second compound 0.1 µM, first compound 0.316 µM
[10] = second compound 0.1 µM, first compound 1 µM
[11] = second compound 0.1 µM, first compound 3.16 µM
[12] = second compound 0.1 µM, first compound 10 µM
[13] = second compound 0.316 µM, first compound 0.0316 µM
[14] = second compound 0.316 µM, first compound 0.1 µM
[15] = second compound 0.316 µM, first compound 0.316 µM
[16] = second compound 0.316 µM, first compound 1 µM
[17] = second compound 0.316 µM, first compound 3.16 µM
[18] = second compound 0.316 µM, first compound 10 µM
[19] = second compound 1 µM, first compound 0.0316 µM
[20] = second compound 1 µM, first compound 0.1 µM
[21] = second compound 1 µM, first compound 0.316 µM
[22] = second compound 1 µM, first compound 1 µM
[23] = second compound 1 µM, first compound 3.16 µM
[24] = second compound 1 µM, first compound 10 µM
[25] = second compound 3.16 µM, first compound 0.0316 µM
[26] = second compound 3.16 µM, first compound 0.1 µM
[27] = second compound 3.16 µM, first compound 0.316 µM
[28] = second compound 3.16 µM, first compound 1 µM
[29] = second compound 3.16 µM, first compound 3.16 µM
[30] = second compound 3.16 µM, first compound 10 µM
[31] = second compound 10 µM, first compound 0.0316 µM
[32] = second compound 10 µM, first compound 0.1 µM
[33] = second compound 10 µM, first compound 0.316 µM
[34] = second compound 10 µM, first compound 1 µM
[35] = second compound 10 µM, first compound 3.16 µM
[36] = second compound 10 µM, first compound 10 µM
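Note: spheroids exposed to agents for seven days before the viability read.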

Cn1ncc(Cl)c1-c1cc(C(=O)NC(CN)Cc2cccc(F)c2)sc1Cl (stereo unspecified) + Cc1nc(NC(=O)N2CCCC2C(N)=O)sc1-c1ccnc(C(C)(C)C(F)(F)F)c1
115 nM: IC50 (second compound 1 µM)
105 nM: IC50 (second compound 0.1 µM)
< 31.6 nM: IC50 (second compound 10 µM)
active: viability, T/C [6] 3.64% | viability, T/C [12] 4.82% | viability, T/C [24] 3.77% | viability, T/C [29] 11.6% | viability, T/C [30] 4.32% | viability, T/C [35] 8.76% | viability, T/C [36] 3.16%
99.8 nM: IC50 (second compound 0.0316 µM)
inactive: viability, T/C [1] 78.8% | viability, T/C [2] 46.8% | viability, T/C [3] 32.6% | viability, T/C [4] 20.9% | viability, T/C [5] 17.9% | viability, T/C [7] 79.4% | viability, T/C [8] 45% | viability, T/C [9] 36.2% | viability, T/C [10] 21.6% | viability, T/C [11] 16.7% | viability, T/C [13] 64.3% | viability, T/C [14] 63.8% | viability, T/C [15] 31.2% | viability, T/C [16] 23% | viability, T/C [17] 19.3% | viability, T/C [18] 4.88% | viability, T/C [19] 59.5% | viability, T/C [20] 53.6% | viability, T/C [21] 36.9% | viability, T/C [22] 21.2% | viability, T/C [23] 14.4% | viability, T/C [25] 48.9% | viability, T/C [26] 44.9% | viability, T/C [27] 25.4% | viability, T/C [28] 18.1% | viability, T/C [31] 34.2% | viability, T/C [32] 29.4% | viability, T/C [33] 21.9% | viability, T/C [34] 14.8%
32.4 nM: IC50 (second compound 3.16 µM)
157 nM: IC50 (second compound 0.316 µM)

Cn1nccc1Nc1nccc(-c2ccn(C(CO)c3ccc(Cl)c(F)c3)c(=O)c2)n1 (stereo unspecified) + Cc1nc(NC(=O)N2CCCC2C(N)=O)sc1-c1ccnc(C(C)(C)C(F)(F)F)c1
inactive: viability, T/C [1] 100% | viability, T/C [2] 91% | viability, T/C [3] 101% | viability, T/C [4] 92.5% | viability, T/C [5] 97.2% | viability, T/C [6] 95.1% | viability, T/C [7] 99.2% | viability, T/C [8] 92.5% | viability, T/C [9] 102% | viability, T/C [10] 88.7% | viability, T/C [11] 101% | viability, T/C [12] 91.3% | viability, T/C [13] 95% | viability, T/C [14] 91.3% | viability, T/C [15] 87.7% | viability, T/C [16] 89.3% | viability, T/C [17] 108% | viability, T/C [18] 101% | viability, T/C [19] 76.2% | viability, T/C [20] 89.7% | viability, T/C [21] 77.9% | viability, T/C [22] 79.1% | viability, T/C [23] 100% | viability, T/C [24] 90.3% | viability, T/C [25] 58.4% | viability, T/C [26] 67.5% | viability, T/C [27] 61.9% | viability, T/C [28] 61.8% | viability, T/C [29] 72.4% | viability, T/C [30] 50.1% | viability, T/C [31] 35.6% | viability, T/C [32] 41.5% | viability, T/C [33] 31.4% | viability, T/C [34] 33.7% | viability, T/C [35] 25.8% | viability, T/C [36] 14.7%
> 10000 nM: IC50 (second compound 0.0316 µM) | IC50 (second compound 0.1 µM) | IC50 (second compound 0.316 µM) | IC50 (second compound 1 µM) | IC50 (second compound 3.16 µM)
< 31.6 nM: IC50 (second compound 10 µM)

Cn1ncnc1[C@H]1c2n[nH]c(=O)c3cc(F)cc(c23)N[C@@H]1c1ccc(F)cc1 + Cc1nc(NC(=O)N2CCCC2C(N)=O)sc1-c1ccnc(C(C)(C)C(F)(F)F)c1
inactive: viability, T/C (second compound 0.0316 µM, first compound 0.000316 µM) 115% | viability, T/C (second compound 0.0316 µM, first compound 0.001 µM) 90.7% | viability, T/C (second compound 0.0316 µM, first compound 0.00316 µM) 107% | viability, T/C (second compound 0.0316 µM, first compound 0.01 µM) 98.4% | viability, T/C [1] 105% | viability, T/C [2] 88.3% | viability, T/C (second compound 0.1 µM, first compound 0.000316 µM) 93.6% | viability, T/C (second compound 0.1 µM, first compound 0.001 µM) 88.7% | viability, T/C (second compound 0.1 µM, first compound 0.00316 µM) 98% | viability, T/C (second compound 0.1 µM, first compound 0.01 µM) 93% | viability, T/C [7] 98.5% | viability, T/C [8] 94% | viability, T/C (second compound 0.316 µM, first compound 0.000316 µM) 85% | viability, T/C (second compound 0.316 µM, first compound 0.001 µM) 103% | viability, T/C (second compound 0.316 µM, first compound 0.00316 µM) 99.5% | viability, T/C (second compound 0.316 µM, first compound 0.01 µM) 95.8% | viability, T/C [13] 81.4% | viability, T/C [14] 89.9% | viability, T/C (second compound 1 µM, first compound 0.000316 µM) 80.8% | viability, T/C (second compound 1 µM, first compound 0.001 µM) 85.3% | viability, T/C (second compound 1 µM, first compound 0.00316 µM) 83.3% | viability, T/C (second compound 1 µM, first compound 0.01 µM) 86.6% | viability, T/C [19] 85.3% | viability, T/C [20] 77.3% | viability, T/C (second compound 3.16 µM, first compound 0.000316 µM) 58.2% | viability, T/C (second compound 3.16 µM, first compound 0.001 µM) 70.1% | viability, T/C (second compound 3.16 µM, first compound 0.00316 µM) 62.8% | viability, T/C (second compound 3.16 µM, first compound 0.01 µM) 67.3% | viability, T/C [25] 59.3% | viability, T/C [26] 62.2% | viability, T/C (second compound 10 µM, first compound 0.000316 µM) 39.7% | viability, T/C (second compound 10 µM, first compound 0.001 µM) 38.9% | viability, T/C (second compound 10 µM, first compound 0.00316 µM) 43.4% | viability, T/C (second compound 10 µM, first compound 0.01 µM) 45.5% | viability, T/C [31] 31.1% | viability, T/C [32] 30.3%
< 0.316 nM: IC50 (second compound 10 µM)
> 100 nM: IC50 (second compound 0.0316 µM) | IC50 (second compound 0.1 µM) | IC50 (second compound 0.316 µM) | IC50 (second compound 1 µM) | IC50 (second compound 3.16 µM)

From PubChem BioAssay AID1963981 (Molecular Pharmacology Branch, DTP, NCI, 2024)
